Assays:
Experiment in all cases: biochemical
Parameters in all cases: KinomeScan competition binding panel (DiscoveRx), percent of control at 1 uM
Settings in all cases: read-out: Percent Control
AKT1 = AKT1 (Homo sapiens, UniProt P31749)
Description: (§1) In order to further confirm the binding mode, we then tested the compounds in the BTK wild-type (wt) and BTK C481S mutant with immunoblotting by looking at the BTK Y551 auto-phosphorylation. […] In addition, a covalent bond was preferred to form between the […] acrylamide and Cys-481 near the hinge binding area, which further confirmed its irreversible binding mode (Fig. 1d). We next investigated CHMFL-BTK-11′s selectivity profile in 456 kinases/mutants with KinomeScan^TM technology.

CAMK2D = CAMK2D (Homo sapiens, UniProt Q13557)
Description: as §1

CAMK2G = CAMK2G (Homo sapiens, UniProt Q13555)
Description: as §1

CHEK1 = CHEK1 (Homo sapiens, UniProt O14757)
Description: as §1

CIT = CIT (Homo sapiens, UniProt O14578)
Description: as §1

CSNK1G2 = CSNK1G2 (Homo sapiens, UniProt P78368)
Description: as §1

EGFR(G719S) = EGFR(G719S) (Homo sapiens, UniProt P00533, G719S)
Description: as §1

[1] = target: EGFR(L747-E749del, A750P) (Homo sapiens, UniProt P00533, A750P/DEL747-749)
Description: as §1

EPHA2 = EPHA2 (Homo sapiens, UniProt P29317)
Description: as §1

EPHB3 = EPHB3 (Homo sapiens, UniProt P54753)
Description: as §1

ERK3 = target: T1, ERK3 (Homo sapiens, UniProt Q16659)
T1 construct: gene MAPK6
Description: as §1

FGFR4 = FGFR4 (Homo sapiens, UniProt P22455)
Description: as §1

HPK1 = target: T2, HPK1 (Homo sapiens, UniProt Q92918)
T2 construct: gene MAP4K1
Description: as §1

IKK-alpha = target: T3, IKK-alpha (Homo sapiens, UniProt O15111)
T3 construct: gene CHUK
Description: as §1

ITK = ITK (Homo sapiens, UniProt Q08881)
Description: as §1

[2] = target: T4, JAK3(JH1domain-catalytic) (Homo sapiens, UniProt P52333)
T4 construct: JH1domain-catalytic
Description: as §1

KIT = KIT (Homo sapiens, UniProt P10721)
Description: as §1

KIT(A829P) = KIT(A829P) (Homo sapiens, UniProt P10721, A829P)
Description: as §1

LIMK1 = LIMK1 (Homo sapiens, UniProt P53667)
Description: as §1

LTK = LTK (Homo sapiens, UniProt P29376)
Description: as §1

PIK3CA(M1043I) = PIK3CA(M1043I) (Homo sapiens, UniProt P42336, M1043I)
Description: as §1

PIP5K2C = target: T5, PIP5K2C (Homo sapiens, UniProt Q8TBX8)
T5 construct: gene PIP4K2C
Description: as §1

RAF1 = RAF1 (Homo sapiens, UniProt P04049)
Description: as §1

[3] = target: T6, RPS6KA5(Kin.Dom.2-C-terminal) (Homo sapiens, UniProt O75582)
T6 construct: Kin.Dom.2-C-terminal
Description: as §1

Sequence of EGFR(L747-E749del, A750P) (P00533 with tags, fused parts or gaps DEL747-749/A750P): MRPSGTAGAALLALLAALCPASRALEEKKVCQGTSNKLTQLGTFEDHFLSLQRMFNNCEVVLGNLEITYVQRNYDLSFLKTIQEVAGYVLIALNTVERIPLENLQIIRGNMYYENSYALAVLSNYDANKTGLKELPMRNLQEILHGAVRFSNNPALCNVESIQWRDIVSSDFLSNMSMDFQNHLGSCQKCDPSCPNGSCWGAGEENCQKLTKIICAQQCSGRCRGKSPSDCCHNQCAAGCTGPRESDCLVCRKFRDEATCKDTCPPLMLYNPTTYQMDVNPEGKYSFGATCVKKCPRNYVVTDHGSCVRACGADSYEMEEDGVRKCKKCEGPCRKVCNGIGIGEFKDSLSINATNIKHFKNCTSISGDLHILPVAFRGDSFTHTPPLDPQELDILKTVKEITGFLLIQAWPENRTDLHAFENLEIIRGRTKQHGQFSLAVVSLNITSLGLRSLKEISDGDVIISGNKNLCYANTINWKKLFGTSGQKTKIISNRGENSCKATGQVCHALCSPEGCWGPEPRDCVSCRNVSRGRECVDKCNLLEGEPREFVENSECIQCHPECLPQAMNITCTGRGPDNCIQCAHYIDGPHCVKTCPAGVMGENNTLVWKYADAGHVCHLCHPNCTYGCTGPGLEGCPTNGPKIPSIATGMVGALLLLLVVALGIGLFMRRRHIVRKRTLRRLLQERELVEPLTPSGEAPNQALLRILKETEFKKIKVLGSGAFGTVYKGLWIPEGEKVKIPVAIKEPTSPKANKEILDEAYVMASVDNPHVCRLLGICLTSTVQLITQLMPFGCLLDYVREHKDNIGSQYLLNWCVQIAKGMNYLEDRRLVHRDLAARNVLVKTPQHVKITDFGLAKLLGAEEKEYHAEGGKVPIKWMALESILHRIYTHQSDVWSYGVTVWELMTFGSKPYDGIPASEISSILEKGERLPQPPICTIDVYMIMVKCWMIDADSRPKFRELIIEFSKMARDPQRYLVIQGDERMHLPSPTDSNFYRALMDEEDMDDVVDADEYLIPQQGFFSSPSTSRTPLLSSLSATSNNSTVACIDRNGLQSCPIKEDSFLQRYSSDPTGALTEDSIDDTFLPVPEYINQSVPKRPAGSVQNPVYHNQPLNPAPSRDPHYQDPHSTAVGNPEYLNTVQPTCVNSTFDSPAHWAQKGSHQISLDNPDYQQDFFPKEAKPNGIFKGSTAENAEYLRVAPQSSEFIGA
Sequence of CAMK2G (Q13555 whole entry): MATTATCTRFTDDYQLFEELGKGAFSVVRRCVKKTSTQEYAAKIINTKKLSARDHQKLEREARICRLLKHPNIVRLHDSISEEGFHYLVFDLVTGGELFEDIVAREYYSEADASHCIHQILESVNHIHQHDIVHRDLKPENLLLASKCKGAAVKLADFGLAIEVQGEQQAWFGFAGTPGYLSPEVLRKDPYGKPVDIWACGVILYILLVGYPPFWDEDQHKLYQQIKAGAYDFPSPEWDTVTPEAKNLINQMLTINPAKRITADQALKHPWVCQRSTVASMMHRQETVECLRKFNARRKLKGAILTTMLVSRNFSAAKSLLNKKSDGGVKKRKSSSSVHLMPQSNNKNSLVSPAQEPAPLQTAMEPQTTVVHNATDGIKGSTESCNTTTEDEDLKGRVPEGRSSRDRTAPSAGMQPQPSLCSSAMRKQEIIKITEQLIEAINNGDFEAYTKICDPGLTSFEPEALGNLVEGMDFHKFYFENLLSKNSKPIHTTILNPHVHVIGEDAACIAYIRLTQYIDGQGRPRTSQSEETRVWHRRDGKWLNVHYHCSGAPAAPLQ
T1 sequence (Q16659 whole entry): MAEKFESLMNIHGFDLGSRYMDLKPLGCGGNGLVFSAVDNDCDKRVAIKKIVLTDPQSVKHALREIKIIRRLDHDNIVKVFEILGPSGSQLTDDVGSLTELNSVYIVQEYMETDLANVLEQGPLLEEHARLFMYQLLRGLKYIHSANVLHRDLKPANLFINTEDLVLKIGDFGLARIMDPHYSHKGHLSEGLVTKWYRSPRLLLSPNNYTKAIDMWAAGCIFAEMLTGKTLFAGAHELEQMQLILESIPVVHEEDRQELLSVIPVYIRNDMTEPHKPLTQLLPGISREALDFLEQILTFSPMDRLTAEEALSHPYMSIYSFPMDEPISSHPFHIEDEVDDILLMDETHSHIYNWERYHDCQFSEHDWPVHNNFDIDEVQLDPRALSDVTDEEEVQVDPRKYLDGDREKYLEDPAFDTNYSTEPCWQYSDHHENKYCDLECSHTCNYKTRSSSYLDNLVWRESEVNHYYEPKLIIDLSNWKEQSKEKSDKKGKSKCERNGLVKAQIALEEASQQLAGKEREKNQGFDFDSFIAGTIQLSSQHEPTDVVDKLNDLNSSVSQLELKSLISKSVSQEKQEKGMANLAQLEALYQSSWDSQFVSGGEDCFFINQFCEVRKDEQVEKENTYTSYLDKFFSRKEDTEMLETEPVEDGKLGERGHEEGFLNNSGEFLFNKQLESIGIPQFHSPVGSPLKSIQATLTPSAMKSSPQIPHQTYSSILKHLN
T2 sequence (Q92918 whole entry): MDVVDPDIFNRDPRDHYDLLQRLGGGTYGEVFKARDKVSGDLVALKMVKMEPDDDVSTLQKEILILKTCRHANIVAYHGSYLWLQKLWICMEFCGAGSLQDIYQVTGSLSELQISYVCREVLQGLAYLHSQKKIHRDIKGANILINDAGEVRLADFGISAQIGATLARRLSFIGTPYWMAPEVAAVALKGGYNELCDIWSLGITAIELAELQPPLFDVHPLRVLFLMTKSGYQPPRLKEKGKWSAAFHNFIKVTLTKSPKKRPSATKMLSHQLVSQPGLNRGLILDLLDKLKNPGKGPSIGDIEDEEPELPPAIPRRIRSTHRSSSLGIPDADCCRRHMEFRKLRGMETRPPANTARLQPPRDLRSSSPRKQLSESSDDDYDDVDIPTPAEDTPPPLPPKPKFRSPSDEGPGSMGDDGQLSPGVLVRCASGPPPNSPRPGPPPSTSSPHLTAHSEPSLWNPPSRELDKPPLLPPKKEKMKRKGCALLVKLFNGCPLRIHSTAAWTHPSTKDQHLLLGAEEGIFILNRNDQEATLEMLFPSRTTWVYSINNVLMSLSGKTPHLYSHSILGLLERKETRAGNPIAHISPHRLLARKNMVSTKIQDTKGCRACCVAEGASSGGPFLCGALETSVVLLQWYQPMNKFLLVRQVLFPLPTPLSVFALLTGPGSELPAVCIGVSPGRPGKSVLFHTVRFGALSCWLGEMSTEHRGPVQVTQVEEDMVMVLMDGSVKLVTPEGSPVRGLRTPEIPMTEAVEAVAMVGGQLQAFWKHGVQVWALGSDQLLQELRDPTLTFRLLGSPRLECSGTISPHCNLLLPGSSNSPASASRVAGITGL
Sequence of KIT (P10721 whole entry): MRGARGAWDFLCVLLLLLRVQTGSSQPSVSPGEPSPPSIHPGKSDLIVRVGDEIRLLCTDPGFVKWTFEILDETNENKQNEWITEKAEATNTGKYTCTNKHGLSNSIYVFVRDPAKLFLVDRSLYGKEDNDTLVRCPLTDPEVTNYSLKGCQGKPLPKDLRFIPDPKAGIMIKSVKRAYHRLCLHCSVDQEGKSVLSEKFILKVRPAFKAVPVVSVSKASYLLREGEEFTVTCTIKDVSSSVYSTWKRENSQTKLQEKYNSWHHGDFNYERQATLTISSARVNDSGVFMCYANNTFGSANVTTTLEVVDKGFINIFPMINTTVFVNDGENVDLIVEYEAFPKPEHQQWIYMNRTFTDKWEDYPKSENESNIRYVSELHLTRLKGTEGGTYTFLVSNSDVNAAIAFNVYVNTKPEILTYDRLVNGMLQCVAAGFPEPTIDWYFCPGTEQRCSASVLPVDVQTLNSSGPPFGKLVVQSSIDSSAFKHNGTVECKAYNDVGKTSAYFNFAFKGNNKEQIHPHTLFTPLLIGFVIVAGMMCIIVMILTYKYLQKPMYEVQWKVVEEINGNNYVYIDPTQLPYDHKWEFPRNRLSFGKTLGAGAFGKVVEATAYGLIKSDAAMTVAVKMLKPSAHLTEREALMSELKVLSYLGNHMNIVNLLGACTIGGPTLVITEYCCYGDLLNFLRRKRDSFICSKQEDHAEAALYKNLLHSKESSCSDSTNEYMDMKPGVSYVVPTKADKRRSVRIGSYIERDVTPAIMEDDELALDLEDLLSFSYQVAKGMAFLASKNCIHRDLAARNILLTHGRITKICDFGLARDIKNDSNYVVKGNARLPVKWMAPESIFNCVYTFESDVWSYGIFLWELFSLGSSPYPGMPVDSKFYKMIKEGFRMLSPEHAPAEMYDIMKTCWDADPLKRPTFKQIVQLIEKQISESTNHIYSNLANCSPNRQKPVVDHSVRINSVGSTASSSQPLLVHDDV
T6 sequence (O75582 whole entry): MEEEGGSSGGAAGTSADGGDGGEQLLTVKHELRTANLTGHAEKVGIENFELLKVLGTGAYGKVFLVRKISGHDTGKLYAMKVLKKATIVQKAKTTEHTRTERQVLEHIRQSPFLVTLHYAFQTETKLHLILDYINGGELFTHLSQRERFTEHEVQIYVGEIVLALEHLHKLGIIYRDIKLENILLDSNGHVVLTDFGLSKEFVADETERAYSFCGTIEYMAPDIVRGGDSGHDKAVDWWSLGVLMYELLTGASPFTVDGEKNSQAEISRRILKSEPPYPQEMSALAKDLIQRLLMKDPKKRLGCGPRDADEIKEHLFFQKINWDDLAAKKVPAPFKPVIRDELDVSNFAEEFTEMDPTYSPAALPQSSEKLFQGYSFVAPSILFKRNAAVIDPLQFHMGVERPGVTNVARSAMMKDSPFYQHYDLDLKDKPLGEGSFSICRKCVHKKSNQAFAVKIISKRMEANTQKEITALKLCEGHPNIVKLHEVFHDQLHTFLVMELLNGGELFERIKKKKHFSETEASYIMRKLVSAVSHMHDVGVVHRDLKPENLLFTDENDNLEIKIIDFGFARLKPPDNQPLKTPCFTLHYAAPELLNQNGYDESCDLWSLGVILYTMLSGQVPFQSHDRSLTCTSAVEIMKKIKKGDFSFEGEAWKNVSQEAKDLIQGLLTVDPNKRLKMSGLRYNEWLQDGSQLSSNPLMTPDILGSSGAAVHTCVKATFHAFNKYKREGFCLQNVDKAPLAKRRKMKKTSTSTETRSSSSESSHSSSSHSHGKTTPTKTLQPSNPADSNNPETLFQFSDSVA

SMILES: C=CC(=O)Nc1cc(-n2c(=O)ccc3cnc4ccc(-n5cccn5)cc4c32)ccc1C [CHMFL-BTK-11]
- remaining binding at 1 µM (AKT1): 96%
- remaining binding at 1 µM (CAMK2D): 80%
- remaining binding at 1 µM (CAMK2G): 73%
- remaining binding at 1 µM (CHEK1): 100%
- remaining binding at 1 µM (CIT): 98%
- remaining binding at 1 µM (CSNK1G2): 100%
- remaining binding at 1 µM (EGFR(G719S)): 88%
- remaining binding at 1 µM [1]: 73%
- remaining binding at 1 µM (EPHA2): 88%
- remaining binding at 1 µM (EPHB3): 97%
- remaining binding at 1 µM (ERK3): 100%
- remaining binding at 1 µM (FGFR4): 100%
- remaining binding at 1 µM (HPK1): 94%
- remaining binding at 1 µM (IKK-alpha): 96%
- remaining binding at 1 µM (ITK): 100%
- remaining binding at 1 µM [2]: 5.7%
- remaining binding at 1 µM (KIT): 100%
- remaining binding at 1 µM (KIT(A829P)): 98%
- remaining binding at 1 µM (LIMK1): 100%
- remaining binding at 1 µM (LTK): 100%
- remaining binding at 1 µM (PIK3CA(M1043I)): 99%
- remaining binding at 1 µM (PIP5K2C): 90%
- remaining binding at 1 µM (RAF1): 100%
- remaining binding at 1 µM [3]: 89%

From publication PMC5428509, “Irreversible inhibition of BTK kinase by a novel highly selective inhibitor CHMFL-BTK-11 suppresses inflammatory response in rheumatoid arthritis model” (Scientific Reports, 2017)
